Values of other authors as cited in patent publication US7935530B2, “Polyamides with tail structures capable of binding DNA” (California Institute of Technology, priority 2006, dated 2011).

System: 5′-ATACGT-3′ sequence within the HRE of the VEGF promoter
Details: values quoted from earlier publications (refs 16, 20); cited from earlier work

SMILES: CN(CCCNC(=O)c1cccc(C(=O)O)c1)CCCNC(=O)c1cc(NC(=O)c2cc(NC(=O)c3nc(NC(=O)c4cc(NC(=O)[C@H](N)CCNC(=O)c5nc(NC(=O)c6cc(NC(=O)c7cc(NC(=O)c8sccc8Cl)cn7C)cn6C)cn5C)cn4C)cn3C)cn2C)cn1C [Polyamide 11]
- Ka at the VEGF HRE, previously found: 2.6 (±0.4)×10^10 M^−1
